Results reported in US9643930B2, “Substituted indazole derivatives as in vitro MAO-B inhibitors” (“NTZ LAB” LTD., priority 2013, dated 2017).
Read-outs that look alike come from different tables or passages of the source.

Legend:
rat MAO-B = target: T1, rat MAO-B (Rattus norvegicus, UniProt P19643); test: Rat MAO-B assay (Amplex Red fluorescence, rat liver mitochondria pre-treated with clorgyline 30 nM); assay type: biochemical; settings: rat liver mitochondria pre-treated with clorgyline 30 nM; read-out: rat MAO-B (rat liver mitochondria) IC50
T1 construct: from tissue; host or cells: rat liver mitochondria (male Sprague-Dawley rats)
T1 sequence (P19643 1-520): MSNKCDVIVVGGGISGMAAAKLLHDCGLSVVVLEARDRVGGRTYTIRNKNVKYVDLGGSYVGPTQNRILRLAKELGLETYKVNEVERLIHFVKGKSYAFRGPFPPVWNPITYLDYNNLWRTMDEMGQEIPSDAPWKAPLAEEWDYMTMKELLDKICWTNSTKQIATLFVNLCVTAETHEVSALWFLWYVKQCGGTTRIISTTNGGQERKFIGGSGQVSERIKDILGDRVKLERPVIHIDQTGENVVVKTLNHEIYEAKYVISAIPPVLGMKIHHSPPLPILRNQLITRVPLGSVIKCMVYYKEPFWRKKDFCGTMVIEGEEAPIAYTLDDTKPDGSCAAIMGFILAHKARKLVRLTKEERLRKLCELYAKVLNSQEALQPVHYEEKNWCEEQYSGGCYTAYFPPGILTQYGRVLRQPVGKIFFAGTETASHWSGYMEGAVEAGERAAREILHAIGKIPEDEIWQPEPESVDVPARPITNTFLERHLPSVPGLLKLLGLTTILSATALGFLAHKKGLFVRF
Experimental: (§1) Male Sprague-Dawley (Harlan Sprague Dawley, Dublin, Va., US) rats (250-300 g) were sacrificed under light anesthesia and their livers were dissected. […] After homogenization, the volume is adjusted to 100 mL with the same buffer. After a low speed centrifugation (10 min at 600 g; 4° C.), the supernatant is further centrifuged at 15,000 rpm for 5 min at +4° C. The resulting pellet was resuspended in 2.0 mL of a 50 mM sodium/phosphate buffer (pH 7.4) and stored at −80° C. in aliquots of 1.0 mL each until further use.
(§2) The Amplex® Red reagent was prepared as recommended in the kit from Invitrogen (A12214). […] Clorgyline (1.0 μM) from Sigma Aldrich (M3778) was used to determine non-MAO-A enzyme activity and concentration-response curves of clorgyline serve as positive control.

rat MAO-A = target: T2, rat MAO-A (Rattus norvegicus, UniProt P21396); test: Rat MAO-A assay (Amplex Red fluorescence, rat liver mitochondria pre-treated with deprenyl); assay type: biochemical; settings: for inhibition at 10 µM: read-out: rat MAO-A (rat liver mitochondria) % inhibition at 10 μM
T2 construct: from tissue; host or cells: rat liver mitochondria (male Sprague-Dawley rats)
T2 sequence (P21396 1-526): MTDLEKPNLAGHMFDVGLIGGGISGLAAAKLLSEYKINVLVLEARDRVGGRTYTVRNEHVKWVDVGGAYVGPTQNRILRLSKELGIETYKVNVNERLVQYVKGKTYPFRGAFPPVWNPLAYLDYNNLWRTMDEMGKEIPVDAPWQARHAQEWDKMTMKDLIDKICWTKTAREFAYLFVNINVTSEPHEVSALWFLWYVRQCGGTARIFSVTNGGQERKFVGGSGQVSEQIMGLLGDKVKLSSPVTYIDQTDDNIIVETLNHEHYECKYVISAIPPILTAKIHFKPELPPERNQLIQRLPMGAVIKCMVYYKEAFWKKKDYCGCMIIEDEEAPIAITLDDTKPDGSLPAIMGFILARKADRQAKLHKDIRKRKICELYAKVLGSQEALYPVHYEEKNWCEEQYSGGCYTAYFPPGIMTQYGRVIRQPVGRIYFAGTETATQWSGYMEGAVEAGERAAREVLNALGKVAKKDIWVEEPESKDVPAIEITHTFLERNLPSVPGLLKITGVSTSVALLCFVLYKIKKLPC
Experimental: as §1, §2

human MAO-A = target: T3, human MAO-A (Homo sapiens, UniProt P21397); test: Human MAO-A assay (recombinant enzyme, Amplex Red fluorescence); settings: for inhibition at 10 µM: read-out: human MAO-A % inhibition at 10 μM
T3 sequence (P21397 1-527): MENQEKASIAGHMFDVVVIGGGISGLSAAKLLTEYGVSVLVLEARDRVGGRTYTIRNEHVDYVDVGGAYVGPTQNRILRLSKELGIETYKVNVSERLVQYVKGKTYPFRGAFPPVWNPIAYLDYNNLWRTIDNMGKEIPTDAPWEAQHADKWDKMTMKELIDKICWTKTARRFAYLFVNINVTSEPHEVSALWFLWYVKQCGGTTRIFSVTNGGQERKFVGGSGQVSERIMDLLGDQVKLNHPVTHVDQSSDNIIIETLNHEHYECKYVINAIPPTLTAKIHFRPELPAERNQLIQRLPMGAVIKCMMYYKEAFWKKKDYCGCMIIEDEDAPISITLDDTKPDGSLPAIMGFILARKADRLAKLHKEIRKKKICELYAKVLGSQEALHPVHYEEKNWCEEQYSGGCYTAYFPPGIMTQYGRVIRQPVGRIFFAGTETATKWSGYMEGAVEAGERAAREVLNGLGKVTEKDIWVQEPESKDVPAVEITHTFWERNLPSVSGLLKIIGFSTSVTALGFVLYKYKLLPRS

human MAO-B [1] = target: T4, human MAO-B (Homo sapiens, UniProt P27338); test: Human MAO-B assay (recombinant enzyme, Amplex Red fluorescence); assay type: biochemical; parameters: purchased Sigma-Aldrich M7441; host or cells: baculovirus-infected insect cells (microsomal product); settings: p-tyramine 150 μM
T4 sequence (P27338 1-520): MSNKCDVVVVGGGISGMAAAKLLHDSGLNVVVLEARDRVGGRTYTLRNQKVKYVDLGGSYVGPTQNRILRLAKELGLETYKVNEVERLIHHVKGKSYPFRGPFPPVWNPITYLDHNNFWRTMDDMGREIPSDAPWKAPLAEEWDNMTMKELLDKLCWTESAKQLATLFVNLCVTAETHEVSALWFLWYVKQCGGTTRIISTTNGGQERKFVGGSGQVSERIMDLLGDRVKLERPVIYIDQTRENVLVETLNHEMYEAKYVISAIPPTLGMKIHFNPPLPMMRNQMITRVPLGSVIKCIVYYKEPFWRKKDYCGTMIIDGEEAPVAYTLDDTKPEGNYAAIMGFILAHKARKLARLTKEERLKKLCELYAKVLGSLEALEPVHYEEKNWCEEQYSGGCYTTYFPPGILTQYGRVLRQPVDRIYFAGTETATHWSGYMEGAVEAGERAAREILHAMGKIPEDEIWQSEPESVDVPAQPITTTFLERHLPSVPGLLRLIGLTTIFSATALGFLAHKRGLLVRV

human MAO-B [2] = target: T4, human MAO-B; test: Assay for mode of MAO-B inhibition (substrate-dependent kinetics, Lineweaver-Burk plots); assay type: biochemical; parameters: purchased Sigma-Aldrich M7441; host or cells: baculovirus-infected insect cells (microsomal product); settings: p-tyramine 0.05-[…]; inhibitor 0.1-10 nM; n=2
Experimental: The type of MAO-B enzyme inhibition was determined by Michaelis-Menten kinetic experiments and sets of Lineweaver-Burk plots were generated. The reciprocal MAO-B activity was plotted against the reciprocal substrate concentration (n=2). […] The enzymatic reactions and measurements were performed using human MAO-B assay conditions, applied for the determination of IC50 values. The experiment was performed in duplicate.

[3] = Storage stability (physicochemical properties, Table 1); settings: specified storage temperature (room temperature)
human MAO-B [4] = target: T4, human MAO-B; test: MAO-B reactivation experiment (time-dependent inhibition, reversibility); settings: compound at IC80; p-tyramine raised from 10 μM to 1.0 mM; monitored 5 hours
[5] = Solubility in organic solvents and in water (physicochemical properties, Table 1); settings: for solubility: water, aqueous buffer
[6] = rat liver mitochondria, substrate p-tyramine, read-out: rat MAO-A (rat liver mitochondria) IC50

## O=C(Nc1ccc(Cl)c(O)c1)c1ccc2[nH]ncc2c1 [Example 6, N-(4-chloro-3-hydroxyphenyl)-1H-indazole-5-carboxamide]
other
  melting point: 306.6 to 307.3 °C
Rat MAO-B
  IC50: 385 ± 9 nM
Rat MAO-A; [6]
  IC50: > 10000 nM
Rat MAO-A; rat liver mitochondria
  inhibition at 10 µM: 43%
Human MAO-A
  inhibition at 10 µM: 81%
Human MAO-A; read-out: human MAO-A IC50, recombinant human enzyme, p-tyramine 150 μM
  IC50: 3000 ± 122 nM
Human MAO-B [1]
  IC50: 37.5 ± 7.3 nM

## COc1ccc(NC(=O)c2ccc3[nH]ncc3c2)cc1OC [Example 7, N-(3,4-dimethoxyphenyl)-1H-indazole-5-carboxamide]
other
  melting point: 258.3 to 261.3 °C
Rat MAO-B
  IC50: 1400 ± 56 nM
Rat MAO-A; [6]
  IC50: > 10000 nM
Rat MAO-A; rat liver mitochondria
  inhibition at 10 µM: 9%
Human MAO-A
  IC50: > 10000 nM
  inhibition at 10 µM: 9%
Human MAO-B [1]
  IC50: 185 ± 21 nM

## Cn1ncc2cc(C(=O)Nc3ccc(Cl)c(Cl)c3)ccc21 [Example 13]
Human MAO-B [2]
  mode of MAO-B inhibition (Lineweaver-Burk plots): linear and intersected at the y-axis with the plot for the uninhibited enzyme
[3]
  Stability: Stable under specified storage temperature (room
Human MAO-B [4]
  reversibility of MAO-B inhibition (enzyme reactivation after raising substrate): reversible MAO-B inhibitors
Rat MAO-B
  IC50: 1.32 ± 0.09 nM
Rat MAO-A
  IC50: > 10000 nM
Rat MAO-A; rat liver mitochondria
  inhibition at 10 µM: 42%
[5]; hot water
  Solubility in water: Very slightly soluble in hot water
[5]; in DMSO, DMF, MeOH, EtOH, i-PrOH, n-BuOH, t-BuOH, acetonitrile (Soluble)
  Solubilty inorganic solvents: Soluble (0.01-0.03 mL per 1.0 mg) in DMSO, DMF,
[5]; in petroleum ether, Et2O and n-hexane (Insoluble)
  Solubilty inorganic solvents: Insoluble (>10 mL per 1.0 mg) in petroleum ether,
[5]; at 22.5° C., pH 7.4
  solubility: < 0.01 µg/mL
[5]; at 90° C., pH 7.4, pH 1.0
  solubility: < 0.035 µg/mL
Human MAO-A
  inhibition at 10 µM: 37%

## C[C@H](NCc1ccc(OCc2cccc(F)c2)cc1)C(N)=O [safinamide, reference compound]
Human MAO-B [4]
  reversibility of MAO-B inhibition (enzyme reactivation after raising substrate): The same result was observed
